Assay results: US9028845B2, “Chimeric immunomodulatory compounds and methods of using the same-IV” (Dynavax Technologies Corporation, priority 2001, dated 2015)
“Also recorded” adds a separate entry of the source.

Test system: human PBMCs
Assay: Human PBMC cytokine response assay (IFN-γ and IFN-α in cell-free medium by ELISA), with or without cPLGA;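 for IFN-α (pg/ml) mean: 20 µg/mL compound for 24 hours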;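 for IFN-γ (pg/ml) mean: 20 µg/mL compound for 24 hours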
Format: cell-based
Settings: for immunomodulatory activity (IFN-γ / IFN-α secretion), in words: used alone (no cPLGA); for IFN-α induction, in words: used alone
[1] = Table 24, mean of donors 28234-28237
[2] = mean of donors 28185-28188, Table 15
[3] = mean of donors 110, 112, 119, 120, Table 14

(5′-TCGTCGA-3′-HEG)2-glycerol-HEG-5′-TCGTCGA-3′ (phosphodiester) [Compound C-93]
IFN-α (Table 9, donor 28089): 0 pg/mL
IFN-γ (Table 9, donor 28089): 0 pg/mL
IFN-α (Table 9, donor 28090): 30 pg/mL
IFN-γ (Table 9, donor 28090): 0 pg/mL
IFN-α (Table 9, donor 28098): 25 pg/mL
IFN-γ (Table 9, donor 28098): 0 pg/mL
IFN-α (Table 9, donor 28099): 29 pg/mL
IFN-γ (Table 9, donor 28099): 3 pg/mL
IFN-α mean (Table 9, mean of donors): 21 pg/mL
IFN-γ mean (Table 9, mean of donors): 1 pg/mL
IFN-α (Table 11, donor 28042): 7 pg/mL
IFN-γ (Table 11, donor 28042): 8 pg/mL
IFN-α (Table 11, donor 28043): 3 pg/mL
IFN-γ (Table 11, donor 28043): 1 pg/mL
IFN-α (Table 11, donor 28044): 81 pg/mL
IFN-γ (Table 11, donor 28044): 41 pg/mL
IFN-α (Table 11, donor 28045): 61 pg/mL
IFN-γ (Table 11, donor 28045): 17 pg/mL
IFN-α mean (Table 11, mean of donors): 38 pg/mL
IFN-γ mean (Table 11, mean of donors): 17 pg/mL
activity when formulated with cPLGA, in words (formulated with cPLGA): significantly more active when formulated with cPLGA; also recorded: active only when formulated
immunomodulatory activity (IFN-γ / IFN-α secretion), in words: inactive as CICs alone

(5′-TCGTCGA-3′-TEG)2-glycerol-TEG-5′-TCGTCGA-3′ [Compound C-103]
IFN-α (Table 24, donor 28234): 16 pg/mL
IFN-γ (Table 24, donor 28234): 21 pg/mL
IFN-α (Table 24, donor 28235): 21 pg/mL
IFN-γ (Table 24, donor 28235): 44 pg/mL
IFN-α (Table 24, donor 28236): 126 pg/mL
IFN-γ (Table 24, donor 28236): 250 pg/mL
IFN-α (Table 24, donor 28237): 213 pg/mL
IFN-γ (Table 24, donor 28237): 1854 pg/mL
IFN-α mean [1]: 94 pg/mL
IFN-γ mean [1]: 542 pg/mL
IFN-α induction, in words: HEG (C-94)>TEG (C-103)>C3 (C-104)=no linker (C-28)

HEG-5′-TCGTCG-3′-HEG-5′-ACGTTCG-3′-HEG-5′-AGATGAT-3′-TEG (phosphodiester linkages) [Compound C-31]
IFN-α (Table 9, donor 28089): 158 pg/mL
IFN-γ (Table 9, donor 28089): 0 pg/mL
IFN-α (Table 9, donor 28090): 26 pg/mL
IFN-γ (Table 9, donor 28090): 0 pg/mL
IFN-α (Table 9, donor 28098): 62 pg/mL
IFN-γ (Table 9, donor 28098): 0 pg/mL
IFN-α (Table 9, donor 28099): 29 pg/mL
IFN-γ (Table 9, donor 28099): 2 pg/mL
IFN-α mean (Table 9, mean of donors): 69 pg/mL
IFN-γ mean (Table 9, mean of donors): 0 pg/mL
activity when formulated with cPLGA, in words (formulated with cPLGA): good activity when formulated with cPLGA
immunomodulatory activity (IFN-γ / IFN-α secretion), in words: inactive as a CIC alone

HEG-5′-TCGTCG-3′-HEG-5′-ACGTTCG-3′-HEG-5′-AGATGAT-3′-TEG [Compound C-30]
IFN-α (Table 9, donor 28089): 134 pg/mL
IFN-γ (Table 9, donor 28089): 0 pg/mL
IFN-α (Table 9, donor 28090): 29 pg/mL
IFN-γ (Table 9, donor 28090): 6 pg/mL
IFN-α (Table 9, donor 28098): 52 pg/mL
IFN-γ (Table 9, donor 28098): 12 pg/mL
IFN-α (Table 9, donor 28099): 47 pg/mL
IFN-γ (Table 9, donor 28099): 20 pg/mL
IFN-α mean (Table 9, mean of donors): 65 pg/mL
IFN-γ mean (Table 9, mean of donors): 9 pg/mL

Starburst Dendrimer ® -(5′-TGACTGTGAACGTTCGAGATGA-3′)x (X range = 3-16) (SEQ ID NO: 2) (See Ex. 24) [Compound C-102]
IFN-a (donor 28185, Table 15): 1880 pg/mL
IFN-g (donor 28185, Table 15): 158 pg/mL
IFN-a (donor 28186, Table 15): 187 pg/mL
IFN-g (donor 28186, Table 15): 43 pg/mL
IFN-a (donor 28187, Table 15): 109 pg/mL
IFN-g (donor 28187, Table 15): 101 pg/mL
IFN-a (donor 28188, Table 15): 4 pg/mL
IFN-g (donor 28188, Table 15): 6 pg/mL
IFN-a (pg/ml) mean [2]: 545 pg/mL
IFN-g (pg/ml) mean [2]: 77 pg/mL
IFN-a (pg/ml) ×2 (mean ×2, Table 15): 1090 pg/mL
IFN-g (pg/ml) ×4 (mean ×4, Table 15): 307 pg/mL
IFN-α induction, in words: significantly more IFN-α activity than the P-6 sequence alone

TMEA-(5′-TGACTGTGAACGTTCGAGATGA-3′)3 (SEQ ID NO: 139) (See Ex. 23) [Compound C-99]
IFN-α (donor 110, Table 14): 22 pg/mL
IFN-γ (donor 110, Table 14): 276 pg/mL
IFN-α (donor 112, Table 14): 4 pg/mL
IFN-γ (donor 112, Table 14): 12 pg/mL
IFN-α (donor 119, Table 14): 86 pg/mL
IFN-γ (donor 119, Table 14): 16 pg/mL
IFN-α (donor 120, Table 14): 2 pg/mL
IFN-γ (donor 120, Table 14): 40 pg/mL
IFN-γ induction when formulated with cPLGA, in words (formulated with cPLGA): induced IFN-γ only when formulated with cPLGA
IFN-α (pg/ml) mean [3]: 29 pg/mL
IFN-γ (pg/ml) mean [3]: 86 pg/mL
IFN-α induction, in words: did not induce IFN-α
